Laboratory results as given in patent publication US20160199524A1, “RADIOSENSITIVITY OF FLUOROPHORES AND USE OF RADIOPROTECTIVE AGENTS FOR DUAL-MODALITY IMAGING” (Immunomedics, Inc., priority 2015, published 2016).

Experiments:
[1] = Biodistribution of Al^18F(IMP485) alone or TF2 pretargeted; settings: nude, mouse, in vivo, iv, total radioactivity; for tissue uptake at 3 h / tissue uptake dose at 3 h: 28 uCi, alone, 3 h post injection
Method: (§1) Mice were necropsied at 1 and 3 h post injection, 7 mice per time point.
(§2) Biodistribution studies were performed in Taconic nude mice bearing subcutaneous LS174T tumor xenografts.
(§3) Mice were necropsied at 1 and 3 h post injection, 6 mice per time point.

[2] = tested on: nude mice bearing LS174T human colonic cancer xenografts; assay: in vivo
Method: as §1, §2, §3

[3] = Taconic nude, mouse, in vivo, iv, 1 h
[4] = Taconic nude, mouse, in vivo, iv, 3 h
[5] = nude (Taconic), mouse, in vivo, iv, 3 h
[6] = nude, mouse, in vivo, iv, 28 uCi, 3 h

Compound: NC(=O)[C@@H](CCCCNC(=O)CNC(=O)CCC(=O)NCCc1c[nH]cn1)NC(=O)[C@@H](Cc1ccc(O)cc1)NC(=O)[C@@H](CCCCNC(=O)CNC(=O)CCC(=O)NCCc1c[nH]cn1)NC(=O)Cc1ccc(CN2CCN(CC(=O)O)CCN(CC(=O)O)CC2)cc1 [Al^18F(IMP485)]
- tissue uptake at 3 h ([1]; % ID/g Spleen): 0.065 %ID/g
- tissue uptake at 3 h ([1]; % ID/g Stomach): 0.041 %ID/g
- tissue uptake at 3 h ([1]; % ID/g Tumor): 0.088 %ID/g
- tissue uptake dose at 3 h ([1]; % ID/org Blood): 0.013 %ID
- tissue uptake dose at 3 h ([1]; % ID/org Kidney): 0.345 %ID
- tissue uptake dose at 3 h ([1]; % ID/org Lg. Int.): 0.408 %ID
- tissue uptake dose at 3 h ([1]; % ID/org Liver): 0.114 %ID
- tissue uptake dose at 3 h ([1]; % ID/org Scapula): 0.006 %ID
- tissue uptake dose at 3 h ([1]; % ID/org Sm. Int.): 0.119 %ID
- tissue uptake dose at 3 h ([1]; % ID/org Spleen): 0.006 %ID
- tissue uptake dose at 3 h ([1]; % ID/org Stomach): 0.016 %ID
- tissue uptake dose at 3 h ([1]; % ID/org Tumor): 0.022 %ID
- tissue uptake at 1 h ([1]; % ID/g Blood): 0.278 %ID/g
- tissue uptake at 1 h ([1]; % ID/g Lung): 0.535 %ID/g
- tissue uptake at 1 h ([1]; % ID/g Sm. Int.): 0.686 %ID/g
- tissue uptake at 1 h ([1]; % ID/g Stomach): 0.534 %ID/g
- tissue uptake dose at 1 h ([1]; % ID/org Blood): 0.456 %ID
- tissue uptake dose at 1 h ([1]; % ID/org Lung): 0.075 %ID
- tissue uptake dose at 1 h ([1]; % ID/org Stomach): 0.265 %ID
- % ID/g Lg. Int. [2, 3]: 0.10 ± 0.03 % ID/g
- % ID/g Liver [2, 3]: 0.24 ± 0.04 % ID/g
- % ID/g Muscle [2, 3]: 0.14 ± 0.10 % ID/g
- % ID/g Blood [2, 4]: 0.02 ± 0.01 % ID/g
- % ID/g Lung [2, 4]: 0.24 ± 0.06 % ID/g
- % ID/g Muscle [2, 4]: 0.03 ± 0.01 % ID/g
- % ID/g Stomach [2, 4]: 0.03 ± 0.02 % ID/g
- % ID/g Sm. Int. ([2]; alone, 1 h post injection): 0.40 ± 0.13 % ID/g
- % ID/g Spleen ([2]; alone, 1 h post injection): 0.21 ± 0.18 % ID/g
- % ID/g Stomach ([2]; alone, 1 h post injection): 0.13 ± 0.11 % ID/g
- % ID/g Tumor ([2]; alone, 1 h post injection): 0.32 ± 0.11 % ID/g
- T/NT Blood ([2]; alone, 1 h post injection): 2.0
- T/NT Kidney ([2]; alone, 1 h post injection): 0.1
- T/NT Lg. Int. ([2]; alone, 1 h post injection): 3.9
- T/NT Liver ([2]; alone, 1 h post injection): 1.8
- T/NT Lung ([2]; alone, 1 h post injection): 1.3
- T/NT Muscle ([2]; alone, 1 h post injection): 4.1
- T/NT Scapula ([2]; alone, 1 h post injection): 2.9
- T/NT Sm. Int. ([2]; alone, 1 h post injection): 0.8
- T/NT Spleen ([2]; alone, 1 h post injection): 1.9
- T/NT Stomach ([2]; alone, 1 h post injection): 3.5
- T/NT Tumor ([2]; alone, 1 h post injection): 1.0
- % ID/g Stomach ([2]; alone, 3 h post injection): 0.04 ± 0.02 % ID/g
- % ID/g Tumor ([2]; alone, 3 h post injection): 0.09 ± 0.02 % ID/g
- T/NT Blood ([2]; alone, 3 h post injection): 21.0
- T/NT Kidney ([2]; alone, 3 h post injection): 0.0
- T/NT Lg. Int. ([2]; alone, 3 h post injection): 0.1
- T/NT Liver ([2]; alone, 3 h post injection): 13.6
- T/NT Lung ([2]; alone, 3 h post injection): 1.3
- T/NT Muscle ([2]; alone, 3 h post injection): 203.9
- T/NT Scapula ([2]; alone, 3 h post injection): 1.2
- T/NT Sm. Int. ([2]; alone, 3 h post injection): 0.7
- T/NT Spleen ([2]; alone, 3 h post injection): 1.4
- T/NT Stomach ([2]; alone, 3 h post injection): 2.5
- T/NT Tumor ([2]; alone, 3 h post injection): 1.0
- T/NT Tumor ([2]; mouse, in vivo): 1
- % ID/g Lg. Int. ([2]; nude (Taconic), mouse, in vivo, iv, 28 uCi, 1 h): 0.08 ± 0.02 % ID/g
- % ID/g Lung ([2]; nude (Taconic), mouse, in vivo, iv, 28 uCi, 3 h): 0.07 ± 0.02 % ID/g
- % ID/g Scapula [2, 5]: 0.06 ± 0.02 % ID/g
- % ID/g Spleen [2, 5]: 0.25 ± 0.11 % ID/g
- % ID/g Liver [2, 6]: 0.10 ± 0.05 % ID/g
- % ID/g Muscle [2, 6]: 0.01 ± 0.01 % ID/g
- % ID/g Blood ([2]; nude, mouse, in vivo, iv, 1 h): 0.28 ± 0.07 % ID/g
- % ID/g Stomach ([2]; nude, mouse, in vivo, iv, 1 h): 0.53 ± 1.18 % ID/g
